US8466185B2, “Methods and assays for detecting and treating hypoglycemia” (priority 2008, dated 2013)
Entries after “also recorded” stand apart in the source; their conditions may differ.

How the values were obtained:
human islets [1] = assay: in vitro perifusion, glucagon secretion from human islets; assay type: cell-based; settings: agonist 100 μM, 3 mM glucose
Protocol: (§1) A high-capacity, automated perifusion system was developed to dynamically measure hormone secretion from pancreatic islets. A low pulsatility peristaltic pump pushed HEPES-buffered solution (mM: 125 NaCl, 5.9 KCl, 2.56 CaCl2, 1 MgCl2, 25 HEPES, and 0.1% BSA; pH 7.4; and a perifusion rate of 100 μL/min) through a column containing 100 pancreatic islets immobilized in Bio-Gel P-4 Gel (BioRad, Hercules, Calif.). Except otherwise stated, glucose concentration was adjusted to 3 mM for all experiments. Stimuli were applied with the perifusion buffer. The perifusate was collected in an automatic fraction collector designed for a 96 well plate format. The columns containing the islets and the perifusion solutions were kept at 37° C., and the perifusate in the collecting plate was kept at <4° C. Perifusates were collected every minute. Hormone release in the perifusate was determined with the human or mouse Endocrine LINCOplex Kit following manufacturer's instructions (Linco research, St. Charles, Mo.).

[2] = tested on: human islets and dispersed single islet cells; assay: [Ca^2+]i imaging (Fura-2) of human islets and dispersed islet cells; assay type: cell-based
Protocol: Glucose was added to give a final concentration of 3 mM. Islets or dispersed islet cells were incubated in Fura-2 AM (2 μM; 1 hour) and placed in a closed small-volume imaging chamber (Warner Instruments, Hamden, Conn.). Stimuli were applied with the bathing solution. Islets loaded with Fura-2 were excited alternatively at 340 and 380 nm with a monochromator light source (Cairn. Research Optoscan Monochromator, Cairn Research Ltd, Faversham, UK). Images were acquired with a Hamamatsu camera (Hamamatsu Corp, Japan) attached to a Zeiss Axiovert 200 microscope (Carl Zeiss, Jena, Germany). Changes in the 340/380 fluorescence emission ratio over time were analyzed in individual islets and dispersed cells using Kinetic Imaging AQM Advance software (Kinetic Imaging, N.C.). Peak changes in the fluorescence ratio constituted the response amplitude.

[3] = tested on: isolated human islet cells; assay: whole-cell patch clamp recordings of dispersed human islet cells; assay type: cell-based; settings: kainate 100 μM; holding potential −70 mV
Protocol: Membrane currents were measured using whole-cell patch clamp recordings of dispersed human islet cells. All recordings were amplified using an EPC10 patch-clamp amplifier and digitized and analyzed using Patchmaster software (Heka Elektronik, Lambrecht, Germany). Pipettes were pulled from borosilicate glass capillaries on a horizontal programmable puller (DMZ Universal Puller, Zeitz-Instrumente, Augsburg, Germany). Pipettes with a resistance of 5-7 MΩ were filled with a pipette solution containing (in mM): 150 NMG (N-methyl-D-Glucamine), 10 EGTA, 1 MgCl2, 2 CaCl2, 5 HEPES and 3 Mg-ATP (pH 7.15). The bath solution contained (in mM): 138 NaCl, 5.6 KCl, 1.2 MgCl2, 2.6 CaCl2, 5 HEPES and 10 TEA (pH7.4). Cells were voltage-clamped at −70 mV. Ligands (e.g. kainate) were applied using the SF-77B Perfusion Fast-Step system (Warner Instruments, Hamden, Conn.), which allows rapid change of solutions bathing a single cell or membrane patch attached to a patch electrode. […] Thus, it is most likely that cells responding to kainate in our electrophysiological experiments were α-cells.

monkey islets [4] = assay: microfluorometric determination of endogenous glutamate release from islets; assay type: cell-based; settings: kainate 100 μM; KCl 30 mM
Protocol: Endogenous glutamate release from pancreatic islets was measured with the Amplex Red Glutamic Acid Assay Kit (Molecular Probes) adapted for microscopic microfluorometric detection (Akagi et al., 2003). In this assay, released glutamate is a substrate in an enzymatic chain reaction that generates the highly fluorescent product resorufin (Molecular Probes, Eugene, Oreg.). L-glutamate is oxidized by glutamate oxidase to produce α-ketoglutarate, NH4, and H2O2. Hydrogen peroxide reacts with the Amplex Red reagent in a reaction catalyzed by horseradish peroxidase to generate resorufin. Pancreatic islets were allowed to attach to a glass coverslip previously coated with poly-D-lysine. The coverslip was mounted in a closed small-volume imaging chamber (Warner Instruments) and perifused with the HEPES-buffered solution containing the stimuli. Resorufin fluorescence was excited at 510 nm, and the emission recorded at 590 nm using the same imaging system used to measure [Ca^2+]i (see above).

mouse islets [5] = assay: perifusion, glucagon secretion from mouse islets; assay type: cell-based, mouse (C57Bl/6); settings: 100 μM
Protocol: as §1

mouse islets [6] = assay: perifusion of mouse islets with β cells destroyed by streptozotocin versus intact islets; assay type: cell-based; settings: streptozotocin-treated versus intact islets
Protocol: This experiment was performed with mouse islets. Two samples were perifused in parallel (“a” and “b”). In “a” (blue curve and blue bar), but not in “b” (red curve and red bar) the β cells were selectively destroyed with streptozotocin. This absence of β cells generates type 1 diabetes-like condition in vitro. The glucagon release profile in panel “A” was obtained by using this model. […] Note that the non specific stimulus arginine is not able to differentiate a functionally impaired α cell in the absence of β cells.
At t=5 min, both samples were stimulated with 100 μM kainate for 5 min. The glucose was increased to 11 mM for 10 minutes and decreased again to 3 mM for the duration of the perifusion. At t=45 min, both samples (v) were stimulated with 5 mM Arginine. […] Kainate is a glutamate analog that is not metabolizable, and therefore a preferred agonist of the AMPA/Kainate receptors. Error bars represent the standards deviations for n=3 perifusions. Comparison were performed by an independent t-test.
For example, in some embodiments the present invention are directed to an in vitro model in which we destroy selectively the beta cells with, for example, streptozotocin, thus creating a situation that mimics type 1 diabetes. The treated islets are composed mainly of alpha cells. […] To examine if alpha cells in islets depleted of beta cells had impaired glutamate signaling, we stimulated them with kainate, an agonist for ionotropic glutamate receptors.

human islets [7] = assay: in vitro perifusion, insulin release from human islets; settings: 100 μM
Protocol: as §1

monkey islets [8] = assay: in vitro perifusion, insulin release from monkey islets; settings: 100 μM; not shown

C=C(C)[C@H]1CN[C@H](C(=O)O)[C@H]1CC(=O)O [kainate]
glucagon release / glucagon secretion (human islets [1]): stimulated large increases in glucagon secretion; also recorded: Increases in glucagon release could also be elicited
glucagon release / glucagon secretion (human islets [1]; listed as Kainate): elicited strong glucagon secretion
glucagon immunoreactive cells that responded to kainate [2]: 7 out of 9
[Ca^2+]i response ([2]; 100 μM): large increases in [Ca^2+]i
kainate responsive cells that were glucagon immunoreactive ([2]; [Ca^2+]i imaging experiments): > 75%
glutamate-responding cells that also responded to kainate ([2]; kainate 100 μM): 12 out of 12
insulin immunoreactive cells that responded to kainate ([2]; n=8): None
whole-cell inward currents [3]: elicited inward currents
glutamate release (resorufin fluorescence) (monkey islets [4]): induced significant glutamate release; also recorded: strongly released glutamate
glucagon release / secretion (mouse islets [5]): stimulated glucagon secretion
reduction of amplitude of kainate-induced glucagon release in absence of β cells (mouse islets [6]; kainate 100 μM for 5 min): 55%
kainate potentiation of glucagon release in absence versus presence of β cells (mouse islets [6]): not as effective in potentiating glucagon release; also recorded: strongly reduced glucagon responses
insulin release (human islets [7]): Neither kainate (100 μM), glutamate (100 μM), nor AMPA (100 μM) stimulated increases in insulin release
insulin release (monkey islets [8]): Neither kainate (100 μM), glutamate (100 μM), nor AMPA (100 μM) stimulated increases in insulin release
